SMILES strings stand for the structures.

The first assay has as its system S. mansoni schistosomulae. Briefly: Phenotypic primary screen assay on schistosomulae (phenotype; viability by methylene blue dye exclusion). The class given is cell-based, Schistosoma mansoni. The following applies: three-day-old schistosomulae, 10 μM, 24 h; estimated 5 days post compound exposure. In short, it runs like this:
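Parasites lacking contraction/relaxation cycles and showing dark internal granulations counted as dead. Movement and body shape were compared with DMSO-treated controls under a stereo microscope at 24 h and at five days of exposure. Larvae came from infected snails shed under light for 2 h at 32 °C.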
With `NC(=O)C(c1ccccc1)(c1ccccc1)[C@@H]1CCN(CCc2ccc3c(c2)CCO3)C1` [Darifenacin], the Phenotype entry is given as “elongated, granulated”.
Turning to `CC(C(O)c1ccc(O)cc1)N1CCC(Cc2ccccc2)CC1` (centres unmarked) [Ifenprodil], the Phenotype result is on record as “abnormal morphology, granulated”.
Still for that read-out and setting: the result for `CCCCCCCCc1ccc(CCC(N)(CO)CO)cc1` [Fingolimod] reads “dark, granulated”.
On the same count and under the same terms, then `C=CC(=O)Nc1cccc(Oc2nc(Nc3ccc(N4CCN(C)CC4)cc3OC)ncc2Cl)c1` [WZ4002], with “dark, granulated”; and `C[C@]12CC[C@@H]3c4ccc(O)cc4CC[C@H]3[C@@H]1CC[C@@H]2O` [Estradiol], with “blebbing”.

The next assay relates to S. mansoni schistosomulae. Briefly: Motility assay on schistosomulae (pixel displacement, relative to DMSO control). The class given is cell-based, Schistosoma mansoni. The following applies: Schistosoma mansoni, 120 h; schistosomulae, secondary screen, 24h exposure, read at D5, 1 µM; read-out: Fractional motility. In outline:
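Mechanically transformed S. mansoni schistosomulae (200/well) in Opti-MEM with 5% dialyzed FBS were exposed to compounds at 1 and 10 μM for 24 h at 37 °C, 5% CO2. Motility filmed at 10 frames/s for 1 min and quantified by pixel displacement relative to DMSO-treated controls.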
Take `NC(=O)C(c1ccccc1)(c1ccccc1)[C@@H]1CCN(CCc2ccc3c(c2)CCO3)C1` [Darifenacin]: the activity at 1 µM is -59%.
Same read-out and setting: the result for `CC(C(O)c1ccc(O)cc1)N1CCC(Cc2ccccc2)CC1` (centres unmarked) [Ifenprodil] reads 11%.
Regarding `CCCCCCCCc1ccc(CCC(N)(CO)CO)cc1` [Fingolimod], the activity at 1 µM came to 151%.
Consider `C=CC(=O)Nc1cccc(Oc2nc(Nc3ccc(N4CCN(C)CC4)cc3OC)ncc2Cl)c1` [WZ4002], for which the activity at 1 µM is 51%.
On to `C[C@]12CC[C@@H]3c4ccc(O)cc4CC[C@H]3[C@@H]1CC[C@@H]2O` [Estradiol], for which the activity at 1 µM turned out to be 23%.

Staying with this assay, now noted: Schistosoma mansoni; schistosomulae, secondary screen, 24h exposure, read at D1, 1 µM; read-out: Fractional motility.
Consider `NC(=O)C(c1ccccc1)(c1ccccc1)[C@@H]1CCN(CCc2ccc3c(c2)CCO3)C1` [Darifenacin], for which the activity at 1 µM is -60%.
On the same count and under the same terms, the result for `CC(C(O)c1ccc(O)cc1)N1CCC(Cc2ccccc2)CC1` (centres unmarked) [Ifenprodil] reads 81%.
On to `CCCCCCCCc1ccc(CCC(N)(CO)CO)cc1` [Fingolimod], for which the activity at 1 µM is 180%.
For `C=CC(=O)Nc1cccc(Oc2nc(Nc3ccc(N4CCN(C)CC4)cc3OC)ncc2Cl)c1` [WZ4002], the activity at 1 µM is -58%.
On the same count and under the same terms, then `C[C@]12CC[C@@H]3c4ccc(O)cc4CC[C@H]3[C@@H]1CC[C@@H]2O` [Estradiol], with 87%.

The assay is the same for the next values; noted with them: schistosomulae, secondary screen, 24h exposure, read at D1, 10 µM.
As to `NC(=O)C(c1ccccc1)(c1ccccc1)[C@@H]1CCN(CCc2ccc3c(c2)CCO3)C1` [Darifenacin], the Fractional motility was -0.70.
The same measure, in the same setting: then `CC(C(O)c1ccc(O)cc1)N1CCC(Cc2ccccc2)CC1` (centres unmarked) [Ifenprodil], with 0.47; and `CCCCCCCCc1ccc(CCC(N)(CO)CO)cc1` [Fingolimod], with 2.04; and `C[C@]12CC[C@@H]3c4ccc(O)cc4CC[C@H]3[C@@H]1CC[C@@H]2O` [Estradiol], with 2.93.

Staying with this assay, now noted: schistosomulae, secondary screen, 24h exposure, read at D5, 10 µM.
For the molecule `NC(=O)C(c1ccccc1)(c1ccccc1)[C@@H]1CCN(CCc2ccc3c(c2)CCO3)C1` [Darifenacin], the Fractional motility is recorded as 0.35.
The same measure, in the same setting: then `CC(C(O)c1ccc(O)cc1)N1CCC(Cc2ccccc2)CC1` (centres unmarked) [Ifenprodil], with -0.10; and `CCCCCCCCc1ccc(CCC(N)(CO)CO)cc1` [Fingolimod], with -1.00.
Still for that read-out and setting: the result for `C=CC(=O)Nc1cccc(Oc2nc(Nc3ccc(N4CCN(C)CC4)cc3OC)ncc2Cl)c1` [WZ4002] reads -0.62; that for `C[C@]12CC[C@@H]3c4ccc(O)cc4CC[C@H]3[C@@H]1CC[C@@H]2O` [Estradiol], 0.31.

The test system of a further assay is S. mansoni adult worms. Briefly: Motility assay on adult parasites (pixel displacement, relative to DMSO control). The following applies: adults, 10 μM, long-term after washout. The format is cell-based, Schistosoma mansoni. In short, it runs like this:
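Unpaired adult worms from mice 6 weeks post-infection kept in OPTI-MEM with 5% dialyzed FBS and exposed to compounds at 1 and 10 μM for 24 h. Motility filmed 1 min at 10 frames/s, quantified by pixel displacement versus DMSO-treated worms; recovery followed up to five days after washout.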
`C=CC(=O)Nc1cccc(Oc2nc(Nc3ccc(N4CCN(C)CC4)cc3OC)ncc2Cl)c1` [WZ4002]: the “motility phenotype in words” value is “hypermotility in male worms and hypomotility in females”.

Still in this assay, the particulars now being: secondary screen, 10 μM, D1, Female adult worms.
Molecule `NC(=O)C(c1ccccc1)(c1ccccc1)[C@@H]1CCN(CCc2ccc3c(c2)CCO3)C1` [Darifenacin] came in with a Fractional motility of 1.90.
The same measure, in the same setting: then `CC(C(O)c1ccc(O)cc1)N1CCC(Cc2ccccc2)CC1` (centres unmarked) [Ifenprodil], with 1.05; and `CCCCCCCCc1ccc(CCC(N)(CO)CO)cc1` [Fingolimod], with -0.39.
On the same count and under the same terms, then `C=CC(=O)Nc1cccc(Oc2nc(Nc3ccc(N4CCN(C)CC4)cc3OC)ncc2Cl)c1` [WZ4002], with 0.66; and `C[C@]12CC[C@@H]3c4ccc(O)cc4CC[C@H]3[C@@H]1CC[C@@H]2O` [Estradiol], with -0.35.

The assay is the same for the next values; noted with them: secondary screen, 10 μM, D1, Male adult worms.
`NC(=O)C(c1ccccc1)(c1ccccc1)[C@@H]1CCN(CCc2ccc3c(c2)CCO3)C1` [Darifenacin] returned a Fractional motility of 3.54.
Still for that read-out and setting: the result for `CC(C(O)c1ccc(O)cc1)N1CCC(Cc2ccccc2)CC1` (centres unmarked) [Ifenprodil] reads 1.73; that for `CCCCCCCCc1ccc(CCC(N)(CO)CO)cc1` [Fingolimod], 0.65; that for `C=CC(=O)Nc1cccc(Oc2nc(Nc3ccc(N4CCN(C)CC4)cc3OC)ncc2Cl)c1` [WZ4002], 0.64.
`C[C@]12CC[C@@H]3c4ccc(O)cc4CC[C@H]3[C@@H]1CC[C@@H]2O` [Estradiol] showed a Fractional motility of 0.83.

Staying with this assay, now noted: secondary screen, 10 μM, D5, Female adult worms.
For `NC(=O)C(c1ccccc1)(c1ccccc1)[C@@H]1CCN(CCc2ccc3c(c2)CCO3)C1` [Darifenacin], the Fractional motility is recorded as -0.69.
Regarding `CC(C(O)c1ccc(O)cc1)N1CCC(Cc2ccccc2)CC1` (centres unmarked) [Ifenprodil], the Fractional motility is -0.36.
Still for that read-out and setting: the result for `CCCCCCCCc1ccc(CCC(N)(CO)CO)cc1` [Fingolimod] reads -0.09; that for `C=CC(=O)Nc1cccc(Oc2nc(Nc3ccc(N4CCN(C)CC4)cc3OC)ncc2Cl)c1` [WZ4002], -0.61; that for `C[C@]12CC[C@@H]3c4ccc(O)cc4CC[C@H]3[C@@H]1CC[C@@H]2O` [Estradiol], 0.13.

The assay is the same for the next values; noted with them: secondary screen, 10 μM, D5, Male adult worms.
Molecule `NC(=O)C(c1ccccc1)(c1ccccc1)[C@@H]1CCN(CCc2ccc3c(c2)CCO3)C1` [Darifenacin] had a Fractional motility of -0.23.
Same read-out and setting: the result for `CC(C(O)c1ccc(O)cc1)N1CCC(Cc2ccccc2)CC1` (centres unmarked) [Ifenprodil] reads -0.44; that for `CCCCCCCCc1ccc(CCC(N)(CO)CO)cc1` [Fingolimod], -0.15.
Still for that read-out and setting: the result for `C=CC(=O)Nc1cccc(Oc2nc(Nc3ccc(N4CCN(C)CC4)cc3OC)ncc2Cl)c1` [WZ4002] reads 1.33; that for `C[C@]12CC[C@@H]3c4ccc(O)cc4CC[C@H]3[C@@H]1CC[C@@H]2O` [Estradiol], 0.26.

For a further assay, the system named is S. mansoni schistosomulae. Briefly: Phenotypic primary screen assay on schistosomulae (phenotype; viability by methylene blue dye exclusion). The format is cell-based. The following applies: Schistosoma mansoni.
As for `NC(=O)C(c1ccccc1)(c1ccccc1)[C@@H]1CCN(CCc2ccc3c(c2)CCO3)C1` [Darifenacin], the viability at 10 µM amounted to 98.5%.

Staying with this assay, now noted: Schistosoma mansoni; three-day-old schistosomulae, 10 μM, 24 h; calculated 5 days post compound exposure; read-out: Viability (%).
As to `CC(C(O)c1ccc(O)cc1)N1CCC(Cc2ccccc2)CC1` (centres unmarked) [Ifenprodil], the viability at 10 µM is 98.5%.
With `CCCCCCCCc1ccc(CCC(N)(CO)CO)cc1` [Fingolimod], the viability at 10 µM was 0%.
Same read-out and setting: the result for `C=CC(=O)Nc1cccc(Oc2nc(Nc3ccc(N4CCN(C)CC4)cc3OC)ncc2Cl)c1` [WZ4002] reads 7%.
With `C[C@]12CC[C@@H]3c4ccc(O)cc4CC[C@H]3[C@@H]1CC[C@@H]2O` [Estradiol], the viability at 10 µM is 98%.

The values are drawn from paper PMC7284125, “Identification of annotated bioactive molecules that impair motility of the blood fluke Schistosoma mansoni” (International Journal for Parasitology: Drugs and Drug …, 2020).
